According to publication PMC7000730, “CAPA neuropeptides and their receptor form an anti-diuretic hormone signaling system in the human disease vector, Aedes aegypti” (Scientific Reports, 2020):
“Also recorded” adds a separate entry of the source. Structures can show the parent of a compound that is named as a salt. Where two headings read alike, the source gives them in different places. Non-standard residues stand in square brackets, D forms with d. Residues, ends and D or L forms follow the SMILES beside them. No end group written: not given here. pGlu = O=C1CC[C@@H](C(=O)O)N1

What was measured:
[1] = biological target: T1, A. aegypti CAPA receptor (CAPAr, anti-diuretic hormone receptor) (Aedes aegypti, UniProt A0A7D5D2Z2); assay: Heterologous receptor functional activation bioluminescence assay (CHO-K1 aequorin); assay type: cell-based; conditions: for CAPAr activation (in words): calcium-based luminescence
T1 sequence (A0A7D5D2Z2 1-712): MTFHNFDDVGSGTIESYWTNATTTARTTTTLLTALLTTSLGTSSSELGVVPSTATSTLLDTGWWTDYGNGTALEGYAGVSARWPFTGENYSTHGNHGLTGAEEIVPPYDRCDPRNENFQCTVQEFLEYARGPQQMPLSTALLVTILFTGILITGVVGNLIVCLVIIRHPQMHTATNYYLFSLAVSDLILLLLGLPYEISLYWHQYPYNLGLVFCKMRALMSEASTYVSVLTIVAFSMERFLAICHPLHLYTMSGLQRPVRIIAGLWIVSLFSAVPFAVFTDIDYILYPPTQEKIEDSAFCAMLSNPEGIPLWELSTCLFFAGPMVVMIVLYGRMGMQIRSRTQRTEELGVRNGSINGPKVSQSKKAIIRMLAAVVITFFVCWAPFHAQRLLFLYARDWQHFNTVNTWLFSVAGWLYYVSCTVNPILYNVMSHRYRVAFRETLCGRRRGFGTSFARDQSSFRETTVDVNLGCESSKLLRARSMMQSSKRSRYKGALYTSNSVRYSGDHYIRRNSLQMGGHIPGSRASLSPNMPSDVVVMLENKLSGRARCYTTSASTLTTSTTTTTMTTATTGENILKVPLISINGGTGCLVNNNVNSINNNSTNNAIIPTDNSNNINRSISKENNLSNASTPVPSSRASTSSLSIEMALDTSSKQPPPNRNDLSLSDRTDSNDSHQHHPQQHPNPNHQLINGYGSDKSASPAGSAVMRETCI
Protocol: (B) Raw luminescent response following application of each CAPA gene-derived neuropeptide and representative neuropeptides belonging to several insect families, each tested at 10 μM. For peptide sequence information and species origin, see Table S3. […] Data represent the mean ± standard error (n = 3).
The open reading frame of the cloned A. aegypti CAPAr was inserted into pcDNA3.1+ mammalian expression vector following procedures described previously[60],[92],[93]. Using a recombinant CHO-K1 cell line stably expressing aequorin[59], A. aegypti CAPAr was transiently expressed following growth and transfection conditions as reported recently. Cells were harvested for the functional assay at 48 hours post-transfection by detaching cells from the culture flask using 5 mM EDTA in Dulbecco’s PBS (DPBS; Wisent Corp., St. Bruno, QC) and later cells were resuspended at a concentration of 10^6–10^7 cells/mL in assay media and incubated with coelenterazine h as described previously. Prior to running the functional assay, cells were diluted 10-fold in assay media and left to incubate for one additional hour. Several endogenous as well as other insect neuropeptides representing a variety of neuropeptide families (see Table S2) were tested by preparing serial dilutions of each peptide in assay media. All peptides were commercially synthesized at a purity of >90% (Genscript, Piscataway, NJ) and 1 mM stock solutions were prepared by dissolving 1 mg of each peptide in water or DMSO as appropriate based on specific peptide characteristics. Recombinant CHO-K1 cells expressing the A. aegypti CAPAr were loaded into each well of multi-well plate using an automated injector module linked to a Synergy 2 Multi Mode Microplate Reader (BioTek, Winooski, VT) which measured kinetic luminescent response from each well for 20 sec immediately following cell loading onto the different peptides at various doses. Data was compiled in Microsoft Excel and analyzed in GraphPad Prism 8.0 (GraphPad Software, San Diego, CA).
Table S2. List and primary structure of several insect neuropeptides tested for functional activation of the mosquito anti-diuretic hormone (CAPA) receptor using heterologous bioassay.

[2] = tested on: isolated MTs of adult female A. aegypti (diuretic hormone-stimulated fluid secretion); assay: Malpighian tubule fluid secretion assay (modified Ramsay assay); set-up: species or system Aedes aegypti; conditions: for effect of inhibitor on inhibition by AedaeCAPA-1 and cGMP, 5HT-stimulated MTs: 5HT 100 nmol l^-1, AedaeCAPA-1 1 fmol l^-1 or cGMP (8 bromo-cGMP) 100 nmol l^-1, L-NAME 2 µmol l^-1 or KT5823 5 µmol l^-1, 60 min
Protocol: To further understand the anti-diuretic signaling pathway involving the CAPA neuroendocrine system, pharmacological blockers, including inhibitors of NOS (L-NAME) and PKG (KT5823), were tested against diuretic hormone-stimulated MTs alone and together with either AedaeCAPA-1 or cGMP.
Figure 5 Effect of a nitric oxide synthase (NOS) inhibitor (L-NAME) on the anti-diuretic activity of AedaeCAPA-1 and cGMP in DromeDH31-stimulated A. aegypti MTs. The NOS inhibitor, L-NAME, was applied against (A) DromeDH31- and (B) 5HT-stimulated MTs alone or in the presence of either AedaeCAPA-1 or cGMP. Secretion rates are presented as mean ± SEM, n = 17–22.
Figure 6 Effect of a protein kinase G (PKG) inhibitor (KT5823) on the anti-diuretic activity of AedaeCAPA-1 and cGMP in DromeDH31-stimulated A. aegypti MTs. The PKG inhibitor, KT5823, was applied against (A) DromeDH31- and (B) 5HT-stimulated MTs alone or in the presence of either AedaeCAPA-1 or cGMP. Secretion rates are presented as mean ± SEM, n = 16–25.
In order to determine fluid secretion rates, a modified Ramsay secretion assay[85] was performed on isolated MTs of 3–6 day old adult female A. aegypti, as reported recently. Tissue dissections were performed under physiological saline prepared as described previously[86] diluted 1:1 with Schneider’s Insect Medium (Sigma-Aldrich, Oakville, ON). Individual MTs were removed and transferred to a Sylgard-lined Petri dish containing 20 μl saline bathing droplets immersed in hydrated mineral oil to prevent evaporation. The proximal end of the MT was removed from the bathing saline and wrapped around a Minuten pin to allow for secretion measurements. Dosages of 25 nmol l^−1 DromeDH31[22] or 100 nmol l^−1 5HT[97],[98] alone or in combination with 1 fmol l^−1 AedaeCAPA-1[37] were applied to the isolated MTs as previously described. […] To investigate the effects of the pharmacological blockers, a nitric oxide synthase (NOS) inhibitor, Nω-Nitro-L-arginine methyl ester hydrochloride (L-NAME), and protein kinase G (PKG) inhibitor, KT5823, were used against 5-HT- and DH31-stimulated MTs. Dosages of 2 µmol l^−1 L-NAME (manufacturer’s recommended dose) and 5 µmol l^−1 KT5823[36] were applied to the MTs. The inhibitors were treated in conjunction with 1 fmol l^−1 AedaeCAPA-1 and/or 100 nmol l^−1 cyclic guanosine monophosphate, 8 bromo-cGMP (cGMP)[37] (Sigma-Aldrich, Oakville, ON, Canada). Unstimulated controls consisted of tubules bathed in physiological saline with no diuretic application. Following a 60-minute incubation period, the size of the secreted droplet was measured using an eyepiece micrometer and fluid secretion rate (FSR) was calculated as described previously. […]

[3] = tested on: isolated MTs of adult female A. aegypti (diuretic hormone-stimulated fluid secretion); conditions: ref [37]; cited from earlier work
Text: The influx of Ca^2+ through these channels activates NOS, causing the production of NO, which subsequently activates guanylate cyclase to increase levels of cGMP in the MTs[44]. Ultimately, the activation of the NO/cGMP pathway stimulates the apical V-type H^+-A ...

[4] = CHO-K1-aequorin cells expressing CAPAr, luminescence, tested up to 10 μM, read-out: EC50 on CAPAr (NA = no detectable activity)
[5] = n = 17–22 (L-NAME), 16–25 (KT5823)
[6] = CHO-K1 cells stably expressing aequorin, A. aegypti CAPAr transiently expressed (48 h post-transfection), coelenterazine h, kinetic luminescence for 20 sec, dose-response, n = 3, read-out: EC50 on CAPAr

NTVNFSPRL-NH2 [PK2-1]
EC50 [1, 4]: > 10 µM

COC(=O)[C@@H](N)CCCNC(N)=N[N+](=O)[O-] [L-NAME, Nω-Nitro-L-arginine methyl ester hydrochloride]
effect of inhibitor on inhibition by AedaeCAPA-1 and cGMP, 5HT-stimulated MTs [2, 5]: neither AedaeCAPA-1 nor cGMP inhibition are influenced by L-NAME; also recorded: L-NAME had no influence on the anti-diuretic activity of AedaeCAPA-1 in 5HT-stimulated MTs
effect of inhibitor on inhibition by AedaeCAPA-1, DH31-stimulated MTs ([2]; DromeDH31 25 nmol l^-1, AedaeCAPA-1 1 fmol l^-1, L-NAME 2 µmol l^-1 or KT5823 5 µmol l^-1, 60 min, n = 17–22 (L-NAME), 16–25 (KT5823)): the inhibitory effect of AedaeCAPA-1 was abolished; also recorded: AedaeCAPA-1 mediated inhibition of DH31-stimulated MTs was mitigated in the presence of L-NAME, reducing the anti-diuretic effects observed with AedaeCAPA-1
effect of inhibitor on inhibition by cGMP, DH31-stimulated MTs ([2]; DromeDH31 25 nmol l^-1, cGMP (8 bromo-cGMP) 100 nmol l^-1, L-NAME 2 µmol l^-1 or KT5823 5 µmol l^-1, 60 min, n = 17–22 (L-NAME), 16–25 (KT5823)): no influence on the inhibitory effect of cGMP; also recorded: did not alter the inhibitory effects of exogenous cGMP

SALDKNFMRF-NH2 [FMRFa-1]
EC50 [1, 4]: > 10 µM

GYRKPPFNGSIF-NH2 [SIFa]
EC50 [1, 4]: > 10 µM

AWNSLHGGW-NH2 [MIP-7]
EC50 [1, 4]: > 10 µM

CC(C)C[C@H](NC(=O)CNC(=O)[C@@H]1CCC(=O)N1)C(=O)N[C@H](C(=O)N1CCC[C@H]1C(=O)N[C@@H](Cc1ccccc1)C(=O)N1CCC[C@H]1C(=O)N[C@@H](CCCNC(=N)N)C(=O)N[C@H](C(N)=O)C(C)C)C(C)C [CAPA2] ([pGlu]GLVPFPRV-NH2)
CAPAr activation (in words) ([1]; CHO-K1-aequorin cells expressing CAPAr): potently activate this receptor
EC50 [1, 6]: 0.00562 µM
raw luminescent response at 10 μM (in words) ([1]; each peptide at 10 μM, vs BSA vehicle control, one-way ANOVA, Tukey, p < 0.01, n = 3): no difference in response was observed between the two endogenous CAPA neuropeptides

GPTVGLFAFPRV-NH2 [CAPA1]
EC50 [1, 6]: 0.00676 µM

SPPFAPRL-NH2 [PK2-2]
EC50 [1, 4]: > 10 µM

COC(=O)[C@@]1(OC)C[C@H]2O[C@]1(C)n1c3ccccc3c3c4c(c5c6ccccc6n2c5c31)C(=O)N(C)C4 [KT5823]
effect of inhibitor on inhibition by AedaeCAPA-1 and cGMP, 5HT-stimulated MTs [2, 5]: the inhibitory activity of AedaeCAPA-1 and cGMP on 5HT-stimulated tubules was abolished
effect of inhibitor on inhibition of both DH31- and 5HT-stimulated diuresis ([2]; AedaeCAPA-1 1 fmol l^-1 or cGMP 100 nmol l^-1, KT5823 5 µmol l^-1, 60 min): the inhibition of both DH31- and 5HT stimulated diuresis by AedaeCAPA-1 and cGMP were sensitive to the PKG inhibitor, KT5823
effect of inhibitor on inhibition by both AedaeCAPA-1 and cGMP, DH31-stimulated MTs ([2]; DromeDH31 25 nmol l^-1, AedaeCAPA-1 1 fmol l^-1 or cGMP (8 bromo-cGMP) 100 nmol l^-1, KT5823 5 µmol l^-1, 60 min, n = 16–25): abolished the inhibitory effect of both cGMP and AedaeCAPA-1; also recorded: abolished the anti-diuretic activity of both AedaeCAPA-1 and cGMP, resulting in normal DH31-induced diuresis

AGNSGANSGMWFGPRL-NH2 [PK1]
luminescent response as activity compared to either CAPA peptide ([1]; 10 μM (saturating dose), n = 3): ~ 20%
potency compared to the canonical CAPA ligands ([1]; CAPAr in CHO-K1-aequorin cells): over five orders of magnitude lower compared to the canonical CAPA ligands
CAPAr activation (in words) ([1]; CHO-K1-aequorin cells expressing CAPAr, listed as Aedae-PK1): low agonist activity
CAPAr activation (in words) ([1]; CHO-K1-aequorin cells expressing CAPAr, listed as pyrokinin 1-related peptide): very poor activity compared to the two CAPA peptides
CAPAr activation (in words) ([1]; CHO-K1-aequorin cells expressing CAPAr, listed as pyrokinin-1): a significantly higher concentration of pyrokinin-1 was needed to achieve even low level CAPAr activation
EC50 ([1]; CHO-K1 cells stably expressing aequorin, A. aegypti CAPAr transiently expressed (48 h post-transfection), coelenterazine h, kinetic luminescence for 20 sec, tested up to 10 μM, read-out: EC50 on CAPAr): > 10 µM

Nc1nc2c(nc(Br)n2[C@@H]2O[C@@H]3COP(=O)(O)O[C@H]3[C@H]2O)c(=O)[nH]1 [cGMP, cyclic guanosine monophosphate, 8 bromo-cGMP]
inhibition of fluid secretion rate (earlier work) [3]: considerably inhibits fluid secretion rate

KAVRSPSLRLRF-NH2 [sNPF]
EC50 [1, 4]: > 10 µM

NSVVLGKKQRFHSWG-NH2 [kinin]
EC50 [1, 4]: > 10 µM
